Columns and labels:
[1] = target: T1, CDK7/Cyclin H/MNAT1 (Homo sapiens, UniProt P50613); test: Enzymatic assay for CDK7 (LANCE Ultra kinase assay, FRET based); assay type: biochemical; conditions: for IC50: ATP at Km
T1 construct: purchased Invitrogen PR6749B
In short: (§1)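 With ATP set at its Km, compounds were tested against purified CDK/cyclin complexes phosphorylating a ULight-labeled peptide. Signal came from FRET between the peptide and a Europium-labeled anti-phospho-antibody.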

[2] = target: T2, CDK2/Cyclin A (Homo sapiens, UniProt P24941); test: Enzymatic assay for CDK2 (LANCE Ultra kinase assay, FRET based); assay type: biochemical; conditions: ATP at Km
T2 construct: purchased Invitrogen PV6290
In short: (§2)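 TR-FRET kinase assay at ATP Km with ULight-MBP peptide (68 nM) and Eu-anti-phospho-MBP antibody; CDK2/Cyclin A at […], CDK5/p25 at […]. 8-dose 4-fold compound dilutions; 60 min kinase reaction at 23° C., EDTA stop, 60 min detection, read at 615/665 nm.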

[3] = system: MV4-11; test: Cellular MV4-11 viability assay (CellTiter-Glo, 72 hours); assay type: cell-based; conditions: Homo sapiens; MV4-11 cells
Description: Human […] cell line, MV4-11_(ATCC, Cat #CRL-9591), NSCLC (Non-small cell lung cancer) cell line H460 (ATCC, Cat #HTB-177), A2780 (ECACC, Cat #93112519) and OVCAR-3(ATCC, Cat #HTB-161) were obtained from ATCC. Cells were grown in RPMI-1640 media (Invitrogen, Cat #22400-089) supplemented with 10% FBS (Invitrogen, Cat #10099141) and 1% penicillin/streptomycin (Invitrogen, Cat #15070063) and cultured at 37° C., 5% CO2 in a humidified chamber. All cell lines were routinely tested for mycoplasma.
To effect of the CDK7 inhibitor to inhibit the growth of target cancer cells, viability assay were conducted a 72 hour time period. Briefly, the candidate cell line was plated in 96 well plate at the following density of cells respectively. 1×10^4 cells/well for MV4-11, 5×10^3 for H460 and OVCAR-3, and 1×10^3 for A2780. After 24 hours, the cells were treated with various concentrations of the compound (ranging from 0.0015 uM to 10 uM). DMSO solvent without compound served as a control and final DMSO concentration lest than 0.1%. After 72 hours of incubation at 37° C., 5% CO2 incubator, cells were analyzed for the viability using the CellTiter-Glo Luminescent Cell Viability Assay (Promega, Cat #G7570). All viability assays were performed in duplicate and Luminescence was read using an Envision (Perkin Elmer, USA). Data was analyzed using XLfit software.

[4] = system: A2780; test: A2780 viability assay (CellTiter-Glo, 72 hours); assay type: cell-based; conditions: Homo sapiens; A2780 cells
In short: (§3)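 After a 24 h attachment period, cells received a 0.0015–10 uM compound titration and were incubated 72 h at 37° C, 5% CO2. Viability came from CellTiter-Glo luminescence measured in duplicate.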

[5] = system: OVCAR-3; test: OVCAR-3 viability assay (CellTiter-Glo, 72 hours); assay type: cell-based; conditions: Homo sapiens; OVCAR-3 cells
In short: as §3

[6] = target: T3, CDK5/p25 (Homo sapiens, UniProt Q00535); test: Enzymatic assay for CDK5 (LANCE Ultra kinase assay, FRET based); assay type: biochemical; conditions: ATP at Km
T3 construct: purchased Invitrogen PR8543B
T3 sequence (Q00535 whole entry): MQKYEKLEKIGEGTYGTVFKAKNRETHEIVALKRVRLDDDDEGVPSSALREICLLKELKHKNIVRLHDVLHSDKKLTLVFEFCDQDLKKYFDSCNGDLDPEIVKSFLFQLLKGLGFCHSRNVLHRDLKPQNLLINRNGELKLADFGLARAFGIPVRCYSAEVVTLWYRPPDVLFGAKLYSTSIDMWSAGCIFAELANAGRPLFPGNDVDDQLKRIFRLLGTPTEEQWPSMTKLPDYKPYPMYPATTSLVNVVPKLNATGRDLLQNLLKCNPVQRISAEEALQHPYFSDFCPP
T3 sequence (Q15078 99-307 partner limits assumed): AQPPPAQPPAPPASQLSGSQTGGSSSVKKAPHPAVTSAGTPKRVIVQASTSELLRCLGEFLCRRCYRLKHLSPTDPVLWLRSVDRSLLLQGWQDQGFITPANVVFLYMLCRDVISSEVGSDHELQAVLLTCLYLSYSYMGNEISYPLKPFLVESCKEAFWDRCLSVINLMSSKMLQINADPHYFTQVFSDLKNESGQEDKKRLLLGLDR
In short: as §2

[7] = target: T4, CDK1/Cyclin B (Homo sapiens, UniProt P06493); test: Enzymatic assay for CDK1 (LANCE Ultra kinase assay, FRET based); assay type: biochemical; conditions: ATP at Km; read-out: CDK1 enzymatic activity IC50
T4 construct: purchased Invitrogen PR4768C
T4 sequence (P06493 whole entry): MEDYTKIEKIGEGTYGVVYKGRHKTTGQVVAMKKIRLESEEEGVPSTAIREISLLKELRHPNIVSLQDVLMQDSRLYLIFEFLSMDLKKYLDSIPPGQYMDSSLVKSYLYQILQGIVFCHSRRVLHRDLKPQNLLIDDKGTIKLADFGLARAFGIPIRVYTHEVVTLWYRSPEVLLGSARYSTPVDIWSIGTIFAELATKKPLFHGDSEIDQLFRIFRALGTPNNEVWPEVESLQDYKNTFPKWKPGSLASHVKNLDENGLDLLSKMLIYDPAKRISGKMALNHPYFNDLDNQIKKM
T4 sequence (P14635 whole entry partner): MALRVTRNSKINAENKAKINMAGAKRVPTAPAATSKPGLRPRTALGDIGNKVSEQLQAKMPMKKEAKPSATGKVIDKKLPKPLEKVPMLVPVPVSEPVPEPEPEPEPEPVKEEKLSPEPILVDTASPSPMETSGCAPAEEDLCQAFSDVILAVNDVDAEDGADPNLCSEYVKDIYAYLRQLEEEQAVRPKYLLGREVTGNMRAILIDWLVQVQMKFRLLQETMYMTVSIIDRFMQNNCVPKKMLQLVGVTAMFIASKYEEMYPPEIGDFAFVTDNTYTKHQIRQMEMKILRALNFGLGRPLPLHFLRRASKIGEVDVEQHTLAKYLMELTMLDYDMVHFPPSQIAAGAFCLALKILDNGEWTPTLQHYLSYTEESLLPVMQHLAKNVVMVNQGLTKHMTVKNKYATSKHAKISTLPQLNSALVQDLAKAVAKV
In short: as §1

T1 sequence (P50613 whole entry): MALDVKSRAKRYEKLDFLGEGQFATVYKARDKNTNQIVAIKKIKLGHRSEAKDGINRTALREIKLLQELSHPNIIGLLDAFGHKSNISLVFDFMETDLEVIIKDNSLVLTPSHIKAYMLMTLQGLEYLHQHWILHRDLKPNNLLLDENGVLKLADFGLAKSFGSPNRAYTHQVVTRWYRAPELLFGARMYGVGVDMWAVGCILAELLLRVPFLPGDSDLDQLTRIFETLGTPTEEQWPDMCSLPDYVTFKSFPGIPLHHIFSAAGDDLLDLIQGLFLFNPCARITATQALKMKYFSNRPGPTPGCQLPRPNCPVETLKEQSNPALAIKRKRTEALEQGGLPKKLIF
T1 sequence (P51946 whole entry partner): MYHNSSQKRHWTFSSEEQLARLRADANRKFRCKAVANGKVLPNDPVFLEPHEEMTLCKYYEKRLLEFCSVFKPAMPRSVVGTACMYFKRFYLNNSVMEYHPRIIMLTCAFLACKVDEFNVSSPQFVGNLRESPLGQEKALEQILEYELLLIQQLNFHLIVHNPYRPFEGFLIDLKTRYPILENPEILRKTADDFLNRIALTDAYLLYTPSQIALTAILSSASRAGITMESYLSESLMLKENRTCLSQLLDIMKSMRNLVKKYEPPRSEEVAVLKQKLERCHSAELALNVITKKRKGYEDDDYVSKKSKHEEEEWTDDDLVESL
T1 sequence (P51948 whole entry partner): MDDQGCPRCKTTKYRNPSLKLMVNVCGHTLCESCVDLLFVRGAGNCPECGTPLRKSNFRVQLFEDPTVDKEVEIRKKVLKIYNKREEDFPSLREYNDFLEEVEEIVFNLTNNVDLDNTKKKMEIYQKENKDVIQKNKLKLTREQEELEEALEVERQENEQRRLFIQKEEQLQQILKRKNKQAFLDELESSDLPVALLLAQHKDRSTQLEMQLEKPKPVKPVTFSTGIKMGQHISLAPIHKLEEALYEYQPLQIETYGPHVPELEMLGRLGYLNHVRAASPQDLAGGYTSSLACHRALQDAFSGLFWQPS

Structure (SMILES) | IC50 [1] | CDK1/CDK7: Selectivity of CDK7 inhibition over CDK1 inhibition [1] | CDK2/CDK7: Selectivity of CDK7 inhibition over CDK2 inhibition [1] | CDK5/CDK7: Selectivity of CDK7 inhibition over CDK5 inhibition [1] | IC50 [2] | IC50 [3] | IC50 [4] | IC50 [5] | IC50 [6] | IC50 [7]
C/C=C/C(=O)Nc1ccc2c(-c3ccccc3CNc3nc(NCC4CNCCO4)nc4c(C(C)C)cnn34)nccc2c1 (racemic) [Compound 69] | < 0.1 µM | B (B indicates 50 < [fold] ≤ 500) | B (B indicates 50 < [fold] ≤ 500) | B (B indicates 50 < [fold] ≤ 500) | > 1 µM | < 1 µM | < 1 µM | < 1 µM | > 1 µM | > 1 µM
CC(C)c1cnn2c(NCc3ccccc3-c3nccc4cc(NC(=O)/C=C/CN(C)C)ccc34)nc(NCCCO)nc12 [Compound 28] | 0.1 to 1 µM | B (B indicates 50 < [fold] ≤ 500) | B (B indicates 50 < [fold] ≤ 500) | B (B indicates 50 < [fold] ≤ 500) | > 1 µM | < 1 µM | < 1 µM | < 1 µM | > 1 µM | > 1 µM
CC(C)c1cnn2c(NCc3ccccc3-c3nccc4cc(NC(=O)/C=C/CN(C)C)ccc34)nc(N3CCC(CO)CC3)nc12 [Compound 29] | 0.1 to 1 µM | B (B indicates 50 < [fold] ≤ 500) | B (B indicates 50 < [fold] ≤ 500) | B (B indicates 50 < [fold] ≤ 500) | > 1 µM | < 1 µM | < 1 µM | < 1 µM | > 1 µM | > 1 µM
CC(C)c1cnn2c(NCc3ccccc3-c3nccc4cc(NC(=O)/C=C/CN(C)C)ccc34)nc(N3CCC(O)CC3)nc12 [Compound 31] | < 0.1 µM | A (A indicates [fold] > 500) | A (A indicates [fold] > 500) | A (A indicates [fold] > 500) | > 1 µM | < 1 µM | < 1 µM | < 1 µM | > 1 µM | > 1 µM
CC(C)c1cnn2c(NCc3ccccc3-c3nccc4cc(NC(=O)/C=C/CN(C)C)ccc34)nc(N[C@H]3CC[C@H](O)C3)nc12 [Compound 32] | < 0.1 µM | A (A indicates [fold] > 500) | A (A indicates [fold] > 500) | A (A indicates [fold] > 500) | > 1 µM | < 1 µM | < 1 µM | < 1 µM | > 1 µM | > 1 µM
CC(C)c1cnn2c(NCc3ccccc3-c3nccc4cc(NC(=O)/C=C/CN(C)C)ccc34)nc(NC[C@H]3CC[C@H](O)CC3)nc12 [Compound 33] | 0.1 to 1 µM | B (B indicates 50 < [fold] ≤ 500) | B (B indicates 50 < [fold] ≤ 500) | B (B indicates 50 < [fold] ≤ 500) | > 1 µM | < 1 µM | < 1 µM | < 1 µM | > 1 µM | > 1 µM
CNC1CCN(c2nc(NCc3ccccc3-c3nccc4cc(NC(=O)/C=C/CN(C)C)ccc34)n3ncc(C(C)C)c3n2)CC1 [Compound 34] | < 0.1 µM | A (A indicates [fold] > 500) | A (A indicates [fold] > 500) | A (A indicates [fold] > 500) | > 1 µM | < 1 µM | < 1 µM | < 1 µM | > 1 µM | > 1 µM
CC(C)c1cnn2c(NCc3ccccc3-c3nccc4cc(NC(=O)/C=C/CN(C)C)ccc34)nc(NCCC(C)(C)O)nc12 [Compound 35] | < 0.1 µM | B (B indicates 50 < [fold] ≤ 500) | B (B indicates 50 < [fold] ≤ 500) | B (B indicates 50 < [fold] ≤ 500) | > 1 µM | < 1 µM | < 1 µM | < 1 µM | > 1 µM | > 1 µM
CC(C)c1cnn2c(NCc3ccccc3-c3nccc4cc(NC(=O)/C=C/CN(C)C)ccc34)nc(NC3CCC(O)CC3)nc12 (centres unmarked) [Compound 36] | < 0.1 µM | A (A indicates [fold] > 500) | A (A indicates [fold] > 500) | A (A indicates [fold] > 500) | > 1 µM | < 1 µM | < 1 µM | < 1 µM | > 1 µM | > 1 µM
CC(C)c1cnn2c(NCc3ccccc3-c3nccc4cc(NC(=O)/C=C/CN(C)C)ccc34)nc(N3CCC(N(C)C)CC3)nc12 [Compound 39] | < 0.1 µM | A (A indicates [fold] > 500) | A (A indicates [fold] > 500) | B (B indicates 50 < [fold] ≤ 500) | > 1 µM | < 1 µM | < 1 µM | < 1 µM | > 1 µM | > 1 µM
CC(C)=CC(=O)Nc1ccc2c(-c3ccccc3CNc3nc(N4CCC(N)CC4)nc4c(C(C)C)cnn34)nccc2c1 [Compound 40] | < 0.1 µM | A (A indicates [fold] > 500) | A (A indicates [fold] > 500) | B (B indicates 50 < [fold] ≤ 500) | > 1 µM | < 1 µM | < 1 µM | < 1 µM | > 1 µM | > 1 µM
